This note sets out measurements from ChEMBL document CHEMBL1126449, “Synthesis and anti-acetylcholinesterase activity of 1-benzyl-4-[(5,6-dimethoxy-1-indanon-2-yl)methyl]piperidine hydrochloride (E2020) and related compounds” (Bioorg Med Chem Lett, 1992).

For orientation: IC50 means the concentration that inhibits the measured activity by half.

The target of the test is T1, Acetylcholinesterase (Mus musculus, UniProt P21836).
T1 sequence (P21836 whole entry): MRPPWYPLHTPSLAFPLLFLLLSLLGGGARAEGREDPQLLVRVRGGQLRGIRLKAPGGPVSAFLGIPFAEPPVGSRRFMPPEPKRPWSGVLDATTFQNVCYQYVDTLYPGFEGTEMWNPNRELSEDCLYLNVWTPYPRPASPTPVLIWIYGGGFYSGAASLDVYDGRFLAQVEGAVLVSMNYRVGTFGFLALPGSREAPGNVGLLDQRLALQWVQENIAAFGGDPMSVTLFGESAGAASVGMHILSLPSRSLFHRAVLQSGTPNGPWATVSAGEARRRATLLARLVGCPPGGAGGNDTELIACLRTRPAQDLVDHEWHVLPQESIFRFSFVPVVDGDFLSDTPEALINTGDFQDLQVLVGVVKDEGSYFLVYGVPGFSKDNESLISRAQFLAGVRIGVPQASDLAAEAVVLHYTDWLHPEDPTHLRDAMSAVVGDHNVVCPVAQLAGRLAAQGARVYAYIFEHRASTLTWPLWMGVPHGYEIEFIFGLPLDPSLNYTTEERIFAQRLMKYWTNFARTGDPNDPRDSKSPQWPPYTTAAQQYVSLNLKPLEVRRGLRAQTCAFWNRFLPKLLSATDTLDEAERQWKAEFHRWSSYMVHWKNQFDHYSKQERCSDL
Put plainly: biochemical.
Description: Inhibition of Acetylcholinesterase activity in mouse brain homogenate
Turning to `COc1cc2c(cc1OC)C(=O)/C(=C/C1CCN(Cc3ccccc3)CC1)C2`, the 50% inhibitory concentration (IC50) was 13 nM.

For `COc1cc2c(cc1OC)C(=O)C(CC1CCN(Cc3cccc(C)c3)CC1)C2` (configuration not stated), the IC50 was found to be 2.7 nM.

For `COc1cc2c(cc1OC)C(=O)C(CC1CCN(Cc3ccc([N+](=O)[O-])cc3)CC1)C2` (configuration not stated), half-maximal inhibition (IC50) was put at 100 nM.

For `COc1cc2c(cc1OC)CC(CC1CCN(Cc3ccccc3)CC1)=C2`, the IC50 came to 4400 nM. With `COc1cc2c(cc1OC)C(=O)C(CC1CCN(Cc3ccccc3C)CC1)C2` (configuration not stated), the concentration for half-maximal inhibition (IC50) worked out at 10 nM. As for `COc1cc2c(cc1OC)C(=O)/C(=C/CC1CCN(Cc3ccccc3)CC1)C2`, the figure is 150 nM; as for `COc1cc2c(cc1OC)C(=O)C(CC1CCN(CC3CCCCC3)CC1)C2` (configuration not stated), 8.9 nM; as for `COc1cc2c(cc1OC)C(=O)C(CC1CCN(CCc3ccccc3)CC1)C2` (configuration not stated), 180 nM.

On to `COc1cc2c(cc1OC)C(=O)C(CN1CCN(Cc3ccccc3)CC1)C2` (configuration not stated), for which the IC50 was determined as 94 nM. This IC50 lies about 1.9-fold lower than the previous one. In turn, `COc1cc2c(cc1OC)C(O)C(CC1CCN(Cc3ccccc3)CC1)C2` (configuration not stated) had an IC50 of 300 nM. Compound `COc1cc2c(cc1OC)C(=O)C(CC1CCN(Cc3cccc([N+](=O)[O-])c3)CC1)C2` (configuration not stated) came in with an IC50 of 4 nM. For `COc1cc2c(cc1OC)C(=O)C(CC1CCN(C(=O)c3ccccc3)CC1)C2` (configuration not stated) the value was greater than 10000 nM.
